Earlier results in patent US4196187A, “Rumen-stable pellets” (Eastman Kodak Company, priority 1977, dated 1980).

Columns and labels:
[1] = Example 1

| Compound | soluble to the extent of (25° C., water) | acidity of a saturated solution (pH) [1] | Solubility g./100 g. water at 25° C. [g./100 g. water] |
| --- | --- | --- | --- |
| Cl.NCCCC[C@H](N)C(=O)O [L-Lysine monohydrochloride] | about 70 g./100 g. of water | 5.5 | – |
| CSCCC(N)C(=O)O (racemic) [DL - Methionone] | – | – | 4.0 |
